Experimental data taken from ChEMBL document CHEMBL5724914, “Linking interpersonal differences in gut microbiota composition and drug biotransformation activity” (2024).

Assay: (§1) The drug is tested on WLS-038 corresponding to human gut metagenome with ENA study accession number: PRJEB37062 and ENA sample accession number: ERS12561745 for biotransformation under anaerobic condition. The drug concentrations were measured over 9 timepoints collected between 0 and 24 hours of incubation by liquid-chromatography-coupled mass spectrometry (LC–MS)
Details: 2 µM
Note: call rule not given here.

Bacterial Biotransformation	SMILES
Compound NOT metabolized	CC12CC3CC(C)(C1)CC(N)(C3)C2 [MEMANTINE]
Compound metabolized	Cc1cc(C)cc(OCC2CNC(=O)O2)c1 (stereo not given) [METAXALONE]

Assay: as §1, with “Z-012” for “WLS-038”, “to” for “to human gut”, “ERS12561812” for “ERS12561745”
Details: 2 µM

Bacterial Biotransformation	SMILES
Compound NOT metabolized	CC12CC3CC(C)(C1)CC(N)(C3)C2 [MEMANTINE]
Compound NOT metabolized	Cc1cc(C)cc(OCC2CNC(=O)O2)c1 (stereo not given) [METAXALONE]

Details: human gut metagenome, 24 h, 2 µM

Bacterial Biotransformation	SMILES
Compound NOT metabolized	CC12CC3CC(C)(C1)CC(N)(C3)C2 [MEMANTINE]
Compound metabolized	Cc1cc(C)cc(OCC2CNC(=O)O2)c1 (stereo not given) [METAXALONE]

Details: human gut metagenome, 24 h, 2 µM
Remark: another data set of the same source

Bacterial Biotransformation	SMILES
Compound NOT metabolized	CC12CC3CC(C)(C1)CC(N)(C3)C2 [MEMANTINE]
Compound NOT metabolized	Cc1cc(C)cc(OCC2CNC(=O)O2)c1 (stereo not given) [METAXALONE]

Details: human gut metagenome, 24 h, 2 µM
Remark: another data set of the same source

Bacterial Biotransformation	SMILES
Compound NOT metabolized	CC12CC3CC(C)(C1)CC(N)(C3)C2 [MEMANTINE]
Compound metabolized	Cc1cc(C)cc(OCC2CNC(=O)O2)c1 (stereo not given) [METAXALONE]

Assay: as §1, with “Z-024” for “WLS-038”, “pig” for “human”, “ERS12561823” for “ERS12561745”
Details: 2 µM

Bacterial Biotransformation	SMILES
Compound NOT metabolized	CC12CC3CC(C)(C1)CC(N)(C3)C2 [MEMANTINE]
Compound NOT metabolized	Cc1cc(C)cc(OCC2CNC(=O)O2)c1 (stereo not given) [METAXALONE]

Assay: as §1, with “WLS-069” for “WLS-038”, “ERS12561748” for “ERS12561745”
Details: 2 µM

Bacterial Biotransformation	SMILES
Compound NOT metabolized	CC12CC3CC(C)(C1)CC(N)(C3)C2 [MEMANTINE]
Compound metabolized	Cc1cc(C)cc(OCC2CNC(=O)O2)c1 (stereo not given) [METAXALONE]

Assay: as §1, with “Z-002” for “WLS-038”, “rabbit” for “human”, “ERS12561802” for “ERS12561745”
Details: 2 µM

Bacterial Biotransformation	SMILES
Compound NOT metabolized	CC12CC3CC(C)(C1)CC(N)(C3)C2 [MEMANTINE]
Compound NOT metabolized	Cc1cc(C)cc(OCC2CNC(=O)O2)c1 (stereo not given) [METAXALONE]

Details: human gut metagenome, 24 h, 2 µM
Remark: another data set of the same source

Bacterial Biotransformation	SMILES
Compound NOT metabolized	CC12CC3CC(C)(C1)CC(N)(C3)C2 [MEMANTINE]
Compound metabolized	Cc1cc(C)cc(OCC2CNC(=O)O2)c1 (stereo not given) [METAXALONE]

Details: human gut metagenome, 24 h, 2 µM
Remark: another data set of the same source

Bacterial Biotransformation	SMILES
Compound NOT metabolized	CC12CC3CC(C)(C1)CC(N)(C3)C2 [MEMANTINE]
Compound metabolized	Cc1cc(C)cc(OCC2CNC(=O)O2)c1 (stereo not given) [METAXALONE]

Assay: as §1, with “Z-016” for “WLS-038”, “mouse” for “human”, “ERS12561815” for “ERS12561745”
Details: 2 µM

Bacterial Biotransformation	SMILES
Compound NOT metabolized	CC12CC3CC(C)(C1)CC(N)(C3)C2 [MEMANTINE]
Compound NOT metabolized	Cc1cc(C)cc(OCC2CNC(=O)O2)c1 (stereo not given) [METAXALONE]

Details: human gut metagenome, 24 h, 2 µM
Remark: another data set of the same source

Bacterial Biotransformation	SMILES
Compound NOT metabolized	CC12CC3CC(C)(C1)CC(N)(C3)C2 [MEMANTINE]
Compound NOT metabolized	Cc1cc(C)cc(OCC2CNC(=O)O2)c1 (stereo not given) [METAXALONE]

Details: human gut metagenome, 24 h, 2 µM
Remark: another data set of the same source

Bacterial Biotransformation	SMILES
Compound NOT metabolized	CC12CC3CC(C)(C1)CC(N)(C3)C2 [MEMANTINE]
Compound metabolized	Cc1cc(C)cc(OCC2CNC(=O)O2)c1 (stereo not given) [METAXALONE]

Assay: as §1, with “Z-029” for “WLS-038”, “rat” for “human”, “ERS12561828” for “ERS12561745”
Details: 2 µM

Bacterial Biotransformation	SMILES
Compound NOT metabolized	CC12CC3CC(C)(C1)CC(N)(C3)C2 [MEMANTINE]
Compound NOT metabolized	Cc1cc(C)cc(OCC2CNC(=O)O2)c1 (stereo not given) [METAXALONE]

Assay: as §1, with “WLS-240” for “WLS-038”, “ERS12561773” for “ERS12561745”
Details: 2 µM

Bacterial Biotransformation	SMILES
Compound NOT metabolized	CC12CC3CC(C)(C1)CC(N)(C3)C2 [MEMANTINE]
Compound metabolized	Cc1cc(C)cc(OCC2CNC(=O)O2)c1 (stereo not given) [METAXALONE]

Assay: as §1, with “WLS-098” for “WLS-038”, “ERS12561754” for “ERS12561745”
Details: 2 µM

Bacterial Biotransformation	SMILES
Compound NOT metabolized	CC12CC3CC(C)(C1)CC(N)(C3)C2 [MEMANTINE]
Compound metabolized	Cc1cc(C)cc(OCC2CNC(=O)O2)c1 (stereo not given) [METAXALONE]

Details: human gut metagenome, 24 h, 2 µM
Remark: another data set of the same source

Bacterial Biotransformation	SMILES
Compound NOT metabolized	CC12CC3CC(C)(C1)CC(N)(C3)C2 [MEMANTINE]
Compound NOT metabolized	Cc1cc(C)cc(OCC2CNC(=O)O2)c1 (stereo not given) [METAXALONE]

Assay: as §1, with “Z-027” for “WLS-038”, “to” for “to human gut”, “ERS12561826” for “ERS12561745”
Details: 2 µM

Bacterial Biotransformation	SMILES
Compound NOT metabolized	CC12CC3CC(C)(C1)CC(N)(C3)C2 [MEMANTINE]
Compound metabolized	Cc1cc(C)cc(OCC2CNC(=O)O2)c1 (stereo not given) [METAXALONE]

Details: human gut metagenome, 24 h, 2 µM
Remark: another data set of the same source

Bacterial Biotransformation	SMILES
Compound NOT metabolized	CC12CC3CC(C)(C1)CC(N)(C3)C2 [MEMANTINE]
Compound NOT metabolized	Cc1cc(C)cc(OCC2CNC(=O)O2)c1 (stereo not given) [METAXALONE]

Assay: as §1, with “Z-011” for “WLS-038”, “mouse” for “human”, “ERS12561811” for “ERS12561745”
Details: 2 µM

Bacterial Biotransformation	SMILES
Compound NOT metabolized	CC12CC3CC(C)(C1)CC(N)(C3)C2 [MEMANTINE]
Compound NOT metabolized	Cc1cc(C)cc(OCC2CNC(=O)O2)c1 (stereo not given) [METAXALONE]
